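Protocol summary: plate cells (96-well), add compound at 5 concentrations, incubate 48 h, interpolate endpoints linearly. Abbreviation: GI50, concentration required for 50% inhibition of growth. The concentration for full growth arrest is given as TGI.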

Among the test systems are CAKI-1 renal; HCC-2998 colon; HOP-62 NSCLC; HOP-92 NSCLC; KM12 colon; NCI-H23 lung; RXF 393 renal; SK-OV-3 ovarian; SN12C renal; TK-10 renal.
Common to all, as to assay: NCI tumour cell line growth inhibition, 48 h

Consider `O=[N+]([O-])c1ccc(-n2nnc(C3=NCCN3)c2-c2ccc(Cl)cc2)cc1`, for which the TGI with CAKI-1 renal, with HCC-2998 colon, in the test on HOP-62 NSCLC, in the test on HOP-92 NSCLC, in the test on KM12 colon and in the test with NCI-H23 lung was greater than 100 µM in each case. Besides, the TGI with RXF 393 renal, with SK-OV-3 ovarian, in the test on SN12C renal and in the test on TK-10 renal was greater than 100 µM each time.

In the case of `Cc1c(Cl)cccc1N1C(=O)C(Cl)=C(Cl)C1=O`, the TGI in the test on CAKI-1 renal is greater than 80.9 µM; with HCC-2998 colon, greater than 100 µM; with HOP-62 NSCLC, greater than 100 µM; in the test with HOP-92 NSCLC it was greater than 100 µM; in the test on KM12 colon it was greater than 100 µM; in the test on NCI-H23 lung, greater than 100 µM. The TGI was 97.2 µM with RXF 393 renal, greater than 100 µM with SK-OV-3 ovarian, greater than 100 µM in the test with SN12C renal and greater than 100 µM with TK-10 renal.

For the molecule `NS(=O)(=O)c1ccc(N(/C=C/C(=O)C(F)(F)F)CC(=O)c2ccc(Cl)cc2)cc1`, the GI50 in the test with CAKI-1 renal was 24.4 µM; in the test on HCC-2998 colon, 55.7 µM; in the test on HOP-62 NSCLC, 33 µM; with HOP-92 NSCLC it was 22.3 µM; with KM12 colon, 24.2 µM; in the test on NCI-H23 lung it was 37.5 µM. Also, the GI50 was greater than 100 µM in the test on RXF 393 renal, 69 µM in the test with SK-OV-3 ovarian, 29.3 µM in the test on SN12C renal and 29.7 µM with TK-10 renal. The TGI in the test with CAKI-1 renal was 66 µM; in the test with HCC-2998 colon, greater than 100 µM; in the test on HOP-62 NSCLC it was greater than 100 µM; with HOP-92 NSCLC, 86.7 µM; in the test on KM12 colon, 73.7 µM; in the test on NCI-H23 lung, greater than 100 µM. Further, the TGI in the test with RXF 393 renal is greater than 100 µM; in the test on SK-OV-3 ovarian, greater than 100 µM; in the test with SN12C renal it was greater than 100 µM; in the test on TK-10 renal it was 87.8 µM.

In the case of `C[C@H]1Oc2cc(cnc2N)-c2c(nn(C)c2C#N)CN(C)C(=O)c2ccc(F)cc21`, the GI50 in the test on CAKI-1 renal is 18.3 µM; in the test on HCC-2998 colon, greater than 89 µM; in the test with HOP-62 NSCLC it was 23 µM; in the test with HOP-92 NSCLC, 2.54 µM; in the test on KM12 colon, 0.275 µM; in the test on NCI-H23 lung, 59.1 µM. The GI50 is 16.7 µM in the test with RXF 393 renal, 22.1 µM in the test on SK-OV-3 ovarian, 43.1 µM in the test on SN12C renal and 36.5 µM with TK-10 renal. Also, the TGI was greater than 100 µM with CAKI-1 renal; greater than 100 µM in the test on HCC-2998 colon; greater than 100 µM in the test on HOP-62 NSCLC; greater than 54.2 µM with HOP-92 NSCLC; greater than 100 µM in the test with KM12 colon; greater than 100 µM in the test on NCI-H23 lung. Moreover, the TGI was greater than 90.9 µM with RXF 393 renal, greater than 87 µM in the test with SK-OV-3 ovarian, greater than 100 µM in the test with SN12C renal and greater than 100 µM with TK-10 renal.

On to `CCSc1[nH]c(Nc2nc(-c3ccccc3)n(-c3ccccc3)n2)c(C(N)=O)c1C(N)=O`, for which the TGI in the test on CAKI-1 renal, with HCC-2998 colon, in the test with HOP-62 NSCLC, in the test on HOP-92 NSCLC, in the test with KM12 colon and with NCI-H23 lung was greater than 10 µM in each case. In addition, the TGI with RXF 393 renal, with SK-OV-3 ovarian, in the test with SN12C renal and in the test on TK-10 renal was greater than 10 µM in each case.

Take `O=C(c1ccc(Cl)cc1)c1cnc(Nc2ccccc2Cl)s1`: the TGI in the test on CAKI-1 renal is 40 µM; in the test on HCC-2998 colon, greater than 87.8 µM; with HOP-62 NSCLC it was 54 µM; with HOP-92 NSCLC, 49.5 µM; in the test with KM12 colon, greater than 78.3 µM; in the test on NCI-H23 lung it was 53.7 µM. For the same molecule, the TGI in the test with RXF 393 renal is 42.8 µM; in the test on SK-OV-3 ovarian it was 52 µM; in the test with SN12C renal, 52.1 µM; in the test with TK-10 renal it was 34.9 µM.

Regarding `Nc1c(C(=O)Nc2cccc(Br)c2)sc2nc3c(cc12)C(=O)CCC3`, the GI50 in the test with CAKI-1 renal was 0.615 µM; in the test on HCC-2998 colon it was 1.46 µM; in the test on HOP-62 NSCLC, 1.41 µM; in the test with HOP-92 NSCLC, 0.64 µM; in the test with KM12 colon it was 0.349 µM; in the test with NCI-H23 lung, 0.583 µM. The GI50 is 0.372 µM with RXF 393 renal, 0.501 µM with SK-OV-3 ovarian, 0.779 µM with SN12C renal and 13.9 µM in the test on TK-10 renal. Also, the TGI with CAKI-1 renal is greater than 100 µM; with HCC-2998 colon it was greater than 53.2 µM; with HOP-62 NSCLC it was greater than 100 µM; in the test with HOP-92 NSCLC, 86.2 µM; with KM12 colon, greater than 100 µM; in the test on NCI-H23 lung, greater than 100 µM. The TGI with RXF 393 renal was 15.9 µM; with SK-OV-3 ovarian it was greater than 100 µM; in the test on SN12C renal it was greater than 100 µM; in the test with TK-10 renal it was greater than 100 µM.

`COC12C=C/C(=C(/C(=O)OCc3ccncc3)C(=O)CCCCCCCCC3(OC)C=C/C(=C(/C(=O)OCc4ccncc4)C(=O)CCCCCCCC1)O3)O2`: the GI50 is 1.12 µM in the test on CAKI-1 renal; 0.683 µM in the test on HCC-2998 colon; 1.18 µM in the test with HOP-62 NSCLC; 1.23 µM in the test on HOP-92 NSCLC; 0.78 µM with KM12 colon; 0.178 µM with NCI-H23 lung. Moreover, the GI50 in the test with RXF 393 renal was 0.277 µM; in the test on SK-OV-3 ovarian, 2.03 µM; in the test with SN12C renal, 0.471 µM; in the test with TK-10 renal, 1.6 µM. The TGI with CAKI-1 renal amounted to 2.85 µM; in the test on HCC-2998 colon, 1.39 µM; in the test with HOP-62 NSCLC, 5.59 µM; in the test on HOP-92 NSCLC, 2.36 µM; in the test on KM12 colon, 1.78 µM; in the test with NCI-H23 lung, 0.762 µM. For the same molecule, the TGI in the test on RXF 393 renal amounted to 0.896 µM; in the test on SK-OV-3 ovarian, 9.02 µM; with SN12C renal, 3.89 µM; in the test on TK-10 renal, 3.67 µM.

Take `Cc1[nH]c2ccccc2c1-c1cc(-c2cc(-c3c(C)[nH]c4ccccc34)on2)no1`: the TGI in the test on CAKI-1 renal, with HCC-2998 colon, with HOP-62 NSCLC, in the test with HOP-92 NSCLC, in the test with KM12 colon and in the test on NCI-H23 lung was greater than 100 µM throughout. The TGI in the test on RXF 393 renal, in the test on SK-OV-3 ovarian, in the test with SN12C renal and in the test on TK-10 renal was greater than 100 µM in each case.

Source of the values: PubChem BioAssay (NCI).
